Source: patent publication US8765748B2, “Indazolyl, benzimidazolyl, benzotriazolyl substituted indolinone derivatives as kinase inhibitors useful in the treatment of cancer” (University Health Network, priority 2007, dated 2014)

Key:
CDC2/CDK1 (cycB) = biological target: T1, CDC2/CDK1 (cycB) (Homo sapiens, UniProt P06493); assay: Kinase Selectivity Assay (CEREP, HTRF); format: biochemical; settings: read-out: % Inhibition at 10 μM Concentration, CDC2/CDK1
T1 construct: CEREP, France (ran the assays)
T1 sequence (P06493 whole entry): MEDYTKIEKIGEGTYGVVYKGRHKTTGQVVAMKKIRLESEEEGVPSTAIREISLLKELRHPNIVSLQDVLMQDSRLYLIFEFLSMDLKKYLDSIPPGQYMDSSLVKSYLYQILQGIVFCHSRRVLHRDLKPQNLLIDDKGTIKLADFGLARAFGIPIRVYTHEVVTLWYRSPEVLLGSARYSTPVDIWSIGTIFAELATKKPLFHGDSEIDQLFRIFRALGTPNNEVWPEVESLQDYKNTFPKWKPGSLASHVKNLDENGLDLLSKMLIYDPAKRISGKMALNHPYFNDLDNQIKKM
T1 sequence (P14635 whole entry partner): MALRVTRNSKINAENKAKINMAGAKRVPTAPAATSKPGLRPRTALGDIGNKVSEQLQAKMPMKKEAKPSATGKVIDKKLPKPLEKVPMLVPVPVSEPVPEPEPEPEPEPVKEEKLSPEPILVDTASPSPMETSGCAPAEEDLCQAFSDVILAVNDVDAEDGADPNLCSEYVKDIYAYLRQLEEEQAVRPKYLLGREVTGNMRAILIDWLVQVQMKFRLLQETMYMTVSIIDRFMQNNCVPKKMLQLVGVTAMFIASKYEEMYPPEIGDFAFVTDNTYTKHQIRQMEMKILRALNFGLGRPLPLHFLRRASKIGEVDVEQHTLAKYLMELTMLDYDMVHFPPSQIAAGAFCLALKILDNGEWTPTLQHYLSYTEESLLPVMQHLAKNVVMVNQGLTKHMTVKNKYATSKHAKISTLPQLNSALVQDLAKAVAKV
Description: (§1) kinase, ROCK2, RSK2, Src kinase, Syk, and TRKA. The % Inhibition was determined

PKCb2 = PKCb2 (Homo sapiens, UniProt P05771); assay: Kinase Selectivity Assay (CEREP, HTRF); format: biochemical; settings: read-out: % Inhibition at 10 μM Concentration, PKCbeta 2
PKCb2, sequence (P05771 1-673 isoform P05771-2): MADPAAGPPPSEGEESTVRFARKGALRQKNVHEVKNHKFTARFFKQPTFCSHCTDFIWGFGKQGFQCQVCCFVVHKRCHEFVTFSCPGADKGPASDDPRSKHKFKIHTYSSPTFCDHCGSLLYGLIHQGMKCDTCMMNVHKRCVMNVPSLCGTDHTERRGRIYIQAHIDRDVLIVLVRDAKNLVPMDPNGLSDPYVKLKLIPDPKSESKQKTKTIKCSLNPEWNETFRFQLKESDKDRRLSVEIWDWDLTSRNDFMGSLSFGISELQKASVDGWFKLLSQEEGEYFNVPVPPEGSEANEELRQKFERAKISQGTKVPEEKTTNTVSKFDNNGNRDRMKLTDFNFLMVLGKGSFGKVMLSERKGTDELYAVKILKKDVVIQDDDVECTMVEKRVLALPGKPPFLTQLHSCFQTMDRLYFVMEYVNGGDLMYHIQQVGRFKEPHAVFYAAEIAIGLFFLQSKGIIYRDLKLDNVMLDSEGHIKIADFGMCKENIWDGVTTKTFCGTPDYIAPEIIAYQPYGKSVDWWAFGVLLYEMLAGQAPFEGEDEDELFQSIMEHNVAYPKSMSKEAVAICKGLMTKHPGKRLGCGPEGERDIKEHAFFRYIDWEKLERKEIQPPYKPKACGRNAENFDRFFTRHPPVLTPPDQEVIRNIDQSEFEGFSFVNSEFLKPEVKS
Description: as §1

PKCg = PKCg (Homo sapiens, UniProt P05129); assay: Kinase Selectivity Assay (CEREP, HTRF); format: biochemical; settings: read-out: % Inhibition at 10 μM Concentration, PKCgamma
Description: as §1

Syk = Syk (Homo sapiens, UniProt P43405); assay: Kinase Selectivity Assay (CEREP, HTRF); format: biochemical; settings: read-out: % Inhibition at 10 μM Concentration, Syk
Description: as §1

[1] = tested on: 184A1 immortalized breast cell line; assay: Cell growth inhibition, SRB assay, extended panel; format: cell-based; settings: read-out: GI50 Range, 184A1
Description: (§2) Breast cancer cells (MCF-7, MDA-MB-468, HCC1954), colon cancer cells (SW620) and lung cancer cells (A549), together with human mammary epithelial primary cells (HMEC), were seeded (1000 to 4000 per 80 μl per well depending on the cell growth rate) into 96 well plates, 24 hours before compound overlay. Compounds were prepared as 10 mM stock solutions in 100% DMSO which were diluted with DMEM (Dulbecco's Modified Eagle's Medium) cell growth Medium (Invitrogen, Burlington, ON, Canada) containing 10% FBS (Fetal Bovine Serum) to concentrations ranging from 50 nM to 250 μM. Aliquots (20 μl) from each concentration were overlaid to 80 μl of the pre-seeded cells in the 96 well plates to make final concentrations of 10 nM to 50 μM. The cells were cultured for 5 days before the Sulforhodamine B assay (SRB) was performed to determine the compound's cell growth inhibition activity.
(§3) Sulforhodamine B (purchased from Sigma, Oakville, ON, Canada) is a water-soluble dye that binds to the basic amino acids of the cellular proteins. Thus, colorimetric measurement of the bound dye provides an estimate of the total protein mass that is related to the cell number. the cells are fixed in situ by gently aspirating off the culture media and adding 50 μl ice cold 10% Tri-chloroacetic Acid (TCA) per well and incubate at 4° C. for 30-60 min, The plates are washed with water five times and allowed to air dry for 5 min. Addition of 50 μl 0.4% (w/v) SRB solution in 1% (v/v) acetic acid to each well and incubatation for 30 min at RT completes the staining reaction. Following staining, plates are washed four times with 1% acetic acid to remove unbound dye and then allowed to air dry for 5 min. The stain is solubilized with 100 μl of 10 mM Tris pH10.5 per well. Absorbance is read at 570 nm.
(§4) The percentage (%) of relative growth inhibition was calculated by comparing to DMSO treated only cells (100%). GI50's were determined for compounds with cytotoxic activity. The GI50 was calculated using GraphPad PRISM software (GraphPad Software, Inc., San Diego, Calif., USA).
(§5) In addition to the cell lines tested as described above, selected compounds have been assayed against an extended panel. […] The sulforhodamine B assay (SRB) described above was use to assay test compounds against the extended panel (Table 9).

518A2 melanoma cell line = assay: Cell growth inhibition, SRB assay, extended panel; format: cell-based; settings: Homo sapiens, read-out: GI50 Range, 518A2
Description: as §2, §3, §4, §5

[2] = tested on: A172 brain cancer cell line; assay: Cell growth inhibition, SRB assay, extended panel; format: cell-based; settings: Homo sapiens, A 172, read-out: GI50 Range, A172
Description: as §2, §3, §4, §5

[3] = tested on: BT474 breast cancer cell line; assay: Cell growth inhibition, SRB assay, extended panel; format: cell-based; settings: Homo sapiens, BT-474, read-out: GI50 Range, BT474
Description: as §2, §3, §4, §5

[4] = tested on: Colo 205 colon cancer cell line; assay: Cell growth inhibition, SRB assay, extended panel; format: cell-based; settings: Homo sapiens, read-out: GI50 Range, Colo 205
Description: as §2, §3, §4, §5

[5] = tested on: H358 lung cancer cell line; assay: Cell growth inhibition, SRB assay, extended panel; format: cell-based; settings: Homo sapiens, NCI-H358, read-out: GI50 Range, H358
Description: as §2, §3, §4, §5

[6] = tested on: HCT-15 colon cancer cell line; assay: Cell growth inhibition, SRB assay, extended panel; format: cell-based; settings: Homo sapiens, read-out: GI50 Range, HCT-15
Description: as §2, §3, §4, §5

[7] = tested on: HCT116+/+ colon cancer cell line; assay: Cell growth inhibition, SRB assay, extended panel; format: cell-based; settings: Homo sapiens, HCT-116, read-out: GI50 Range, HCT116+/+
Description: as §2, §3, §4, §5

[8] = tested on: HCT116+/− colon cancer cell line; assay: Cell growth inhibition, SRB assay, extended panel; format: cell-based; settings: Homo sapiens, HCT-116, read-out: GI50 Range, HCT116+/−
Description: as §2, §3, §4, §5

[9] = tested on: HS578T breast cancer cell line; assay: Cell growth inhibition, SRB assay, extended panel; format: cell-based; settings: Homo sapiens, Hs-578T, read-out: GI50 Range, HS578T
Description: as §2, §3, §4, §5

[10] = tested on: Hs683 brain cancer cell line; assay: Cell growth inhibition, SRB assay, extended panel; format: cell-based; settings: Homo sapiens, Hs 683, read-out: GI50 Range, Hs683
Description: as §2, §3, §4, §5

[11] = tested on: MDA-MB-231 breast cancer cell line; assay: Cell growth inhibition, SRB assay, extended panel; format: cell-based; settings: Homo sapiens, read-out: GI50 Range, MDA-MB-231
Description: as §2, §3, §4, §5

[12] = tested on: OVCAR-3 ovarian cancer cell line; assay: Cell growth inhibition, SRB assay, extended panel; format: cell-based; settings: Homo sapiens, read-out: GI50 Range, OVCAR-3
Description: as §2, §3, §4, §5

[13] = tested on: PC-3 prostate cancer cell line; assay: Cell growth inhibition, SRB assay, extended panel; format: cell-based; settings: read-out: GI50 Range, PC-3
Description: as §2, §3, §4, §5

[14] = tested on: SK-N-SH brain cancer cell line; assay: Cell growth inhibition, SRB assay, extended panel; format: cell-based; settings: Homo sapiens, read-out: GI50 Range, SK-N-SH
Description: as §2, §3, §4, §5

[15] = tested on: SK-OV-3 ovarian cancer cell line; assay: Cell growth inhibition, SRB assay, extended panel; format: cell-based; settings: Homo sapiens, read-out: GI50 Range, SK-OV-3
Description: as §2, §3, §4, §5

[16] = tested on: SKBR3 breast cancer cell line; assay: Cell growth inhibition, SRB assay, extended panel; format: cell-based; settings: Homo sapiens, SK-BR-3, read-out: GI50 Range, SKBR3
Description: as §2, §3, §4, §5

[17] = tested on: SW 626 ovarian cancer cell line; assay: Cell growth inhibition, SRB assay, extended panel; format: cell-based; settings: Homo sapiens, SW626, read-out: GI50 Range, SW 626
Description: as §2, §3, §4, §5

[18] = tested on: T47 D breast cancer cell line; assay: Cell growth inhibition, SRB assay, extended panel; format: cell-based; settings: Homo sapiens, T47D; SRB, extended panel; read-out: GI50 Range, T47 D
Description: as §2, §3, §4, §5

Row | SMILES | inhibition at 10 µM (CDC2/CDK1 (cycB)) [%] | inhibition at 10 µM (PKCb2) [%] | inhibition at 10 µM (PKCg) [%] | inhibition at 10 µM (Syk) [%] | GI50 [1] [µM] | GI50 (518A2 melanoma cell line) [µM] | GI50 [2] [µM] | GI50 [3] [µM] | GI50 [4] [µM] | GI50 [5] [µM] | GI50 [6] [µM] | GI50 [7] [µM] | GI50 [8] [µM] | GI50 [9] [µM] | GI50 [10] [µM] | GI50 [11] [µM] | GI50 [12] [µM] | GI50 [13] [µM] | GI50 [16] [µM] | GI50 [18] [µM] | other results
1 | O=C1Nc2ccccc2C1=Cc1ccc2c(/C=C/c3ccccn3)n[nH]c2c1 (mixture of isomers) [Example A41, (E and Z)-3-((3-((E)-2-(pyridin-2-yl)vinyl)-1H-indazol-6-yl)methylene)indolin-2-one] | 62 | 12 | 0 | 70 | 20 to 50 | < 5 | < 5 | > 50 | < 5 | < 5 | < 5 | > 50 | > 50 | 5 to 20 | < 5 | 5 to 20 | > 50 | 20 to 50 | < 5 | < 5 | GI50 [14]: < 5 µM; GI50 [15]: > 50 µM; GI50 [17]: > 50 µM
2 | COc1ccc2c(c1)C(=Cc1ccc3c(-c4ccc(N5CCN(C)CC5)nc4)n[nH]c3c1)C(=O)N2 (mixture of isomers) [Example A97, (E and Z)-5-methoxy-3-((3-(6-(4-methylpiperazin-1-yl)pyridin-3-yl)-1H-indazol-6-yl)methylene)indolin-2-one] | 15 | 37 | 0 | 21 | < 5 | – | – | < 5 | < 5 | – | – | < 5 | < 5 | < 5 | – | < 5 | – | – | < 5 | < 5 | –
3 | CN1CCN(c2ccc(/C=C/c3n[nH]c4cc(C=C5C(=O)Nc6ccccc65)ccc34)cn2)CC1 (mixture of isomers) [Example A108, (E and Z)-3-((3-((E)-2-(6-(4-methylpiperazin-1-yl)pyridin-3-yl)vinyl)-1H-indazol-6-yl)methylene)indolin-2-one] | – | – | – | – | < 5 | < 5 | < 5 | < 5 | < 5 | < 5 | < 5 | < 5 | < 5 | < 5 | < 5 | < 5 | < 5 | < 5 | < 5 | < 5 | GI50 [14]: < 5 µM; GI50 [15]: < 5 µM; GI50 [17]: < 5 µM
4 | O=C1Nc2ncc(Br)cc2C1=Cc1ccc2c(/C=C/c3ccncc3)n[nH]c2c1 (mixture of isomers) [Example A109, (E and Z)-5-bromo-3-((3-((E)-2-(pyridin-4-yl)vinyl)-1H-indazol-6-yl)methyl-ene)-1H-pyrrolo[2,3-b]pyridin-2(3H)-one] | – | – | – | – | < 5 | < 5 | < 5 | 5 to 20 | < 5 | < 5 | < 5 | < 5 | < 5 | < 5 | < 5 | < 5 | < 5 | < 5 | > 50 | < 5 | GI50 [14]: < 5 µM; GI50 [15]: 5 to 20 µM; GI50 [17]: 5 to 20 µM
5 | O=C1Nc2ccccc2/C1=C\c1ccc2[nH]nnc2c1 [Example A1, (E)-3-((1H-benzo[d][1,2,3]triazol-5-yl)methylene)indolin-2-one] | 2 | 0 | 9 | -2 | – | – | – | – | – | – | – | – | – | – | – | – | – | – | – | – | –
6 | O=C1Nc2ccccc2/C1=C\c1ccc2cn[nH]c2c1 [Example A5, (E)-3-((1H-indazol-6-yl)methylene)indolin-2-one] | 9 | 2 | -6 | -3 | – | – | – | – | – | – | – | – | – | – | – | – | – | – | – | – | –
7 | O=C1Nc2ccccc2/C1=C\c1ccc2c(/C=C/c3ccccc3Cl)n[nH]c2c1 [Example A60, (E)-3-((3-((E)-2-chlorostyryl)-1H-indazol-6-yl)methylene)indolin-2-one] | 18 | 4 | 3 | – | – | – | – | – | – | – | – | – | – | – | – | – | – | – | – | – | –
